{"source": "paper PMC9863266", "about": "“Preclinical Studies and Drug Combination of Low-Cost Molecules for Chagas Disease” (Pharmaceuticals, 2022)", "key": {"[1]": {"system": "epimastigote form of T. cruzi, Tulahuen 2 strain", "assay": "Mechanism of death by flow cytometry, AV/IP labeling", "assay_type": "cell-based", "details": "20 × IC50", "experimental": "Parasites were immediately analyzed on an Accuri C6 flow cytometer (BD Bioscience, Franklin Lakes, New Jersey, U.S.). […] Ten thousand events were analyzed for each of the two independent experiments. Data were analyzed using BD CSampler software (BD Bioscience). Untreated parasites were used as a control. For the positive control of apoptosis and necrosis, the parasites were treated with hydrogen peroxide (H2O2) 50 µM and 100 µM for 2.5 h, respectively. These single-spot controls were used to calculate color compensation for flow cytometry."}, "[2]": {"assay": "Stability with microsomal and cytosolic fractions of rat hepatocytes", "assay_type": "in vitro ADME", "experimental": "The qualitative analysis of the in vitro metabolization by the rat hepatocyte microsomal (MF) and cytosolic (CF) fractions of compounds 793, 1019, and 1018 was performed using chromatographic techniques (reverse phase high performance liquid chromatography and thin-layer chromatography). For this, the metabolization was monitored at different times (0, 30, 60 min and 4 h). In both MF and CF of hepatocytes treated with compounds 793 and 1019, it was observed that after one hour, more than 50% (t1/2 < 60 min) of the compounds were metabolized to more hydrophilic compounds. For these compounds, it was observed the appearance of new products of metabolization over time. […] Regarding the structure and metabolism, the heterocycles (thienyl vs. furyl) could be responsible for these different stabilities: the furyl ring would metabolize to an open cycle version, making this system more labile in front of the hepatic metabolization.\nFor the determination of the stability in the different fractions, cytosolic and microsomal, rat hepatocytes protein fractions were purchased by Sigma® and used according to the previously reported protocol. […] The final concentration of the molecules in the aqueous medium was […] and prepared from stock in DMSO of 40 mM. The solutions were homogenized and incubated at 37 °C for 10 min, 30 min, 1 h, 2 h, 3 h, and 4 h (by TLC). Incubation at 37 °C was performed in a reaction volume of 1 mL containing 2.5 µL of 30 mM magnesium chloride (MgCl2); 2.5 µL of 40 mM nicotinamide […] dinucleotide phosphate (NADP^+); 5 µL of 350 mM glucose 6-phosphate (Glu6P); 5 µL of glucose 6-phosphate dehydrogenase (Glu6PD) 50 U/mL, 5 µL of the stock of 40 mM compounds and the volume of the phosphate buffer (pH = 7) was defined so that cytosolic (CF) and microsomal (MF) fraction present a final protein concentration of 0.1 mg/mL. After that, the stability of compounds 793, 1018, and 1019 in the CF and MF of rat hepatocytes was evaluated by HPLC at different times: 0, 30, and 60 min. […]"}, "[3]": {"system": "T. brucei", "design": "method as in earlier work", "details": "read-out: In vitro anti-T. brucei activity (IC50); cited from earlier work"}, "[4]": {"system": "epimastigote form of T. cruzi, Tulahuen 2 strain", "assay": "Viability by flow cytometry, CA-AM/IP labeling", "assay_type": "cell-based", "details": "20 × IC50", "experimental": "Additionally, we evaluated the viability of treated parasites by flow cytometry analysis after incubation with methylated acetoxycalcein (CA-AM) and propidium iodide (IP). […] Since the methodology used to determine the IC50 is based on 5 days of incubation, doses 20 times higher were used to analyze cell viability in shorter times. Similarly, these compounds’ concentrations were used to determine the death mechanism involved at the aforementioned times.\nViability studies of parasites by flow cytometry: The feasibility studies were carried out by evaluating the esterase activity of the parasites using Acetoxymethylated Calcein (CA-AM) and IP (Thermo Fisher Scientific). […] Fluorescence intensity for 10,000 events was acquired from two independent experiments and data were analyzed using BD CSampler software (BD Bioscience)."}, "[5]": {"system": "trypomastigote form of T. cruzi (strain Y)", "assay": "Trypanosomicidal activity in trypomastigotes", "assay_type": "cell-based", "details": "Trypanosoma cruzi, 24 h, 4 °C, infected mouse blood", "experimental": "The experiment was performed on infected, three-month-old, Balb/c mice. Seven days post-infection, when in a parasitemia peak (>1.0 × 10^6 parasites /mL), the blood of the living (anesthetized) mouse was extracted from the aorta or eye (1 mL per mouse), and citrate was used as an anticoagulant, then seeded in a 96-well plate with a final volume of 100 μL (90 μL of blood + 10 μL from a stock solution of the compound containing 10% DMSO). It was left at 4 °C, 24 h, then 5 μL of each sample was used to count trypomastigotes using a 40x optical microscope (MO) (50-field method). The plate fill was performed by homogenizing the well before filling each well (very slowly), and it was performed in triplicate or quadruplicate to obtain the IC50 values of each compound."}, "[6]": {"system": "zebrafish embryos", "experimental": "1-Phenyl-2-thiourea (0.003%) was added to system water to inhibit melanogenesis in embryos destined for microscopic imaging. The eggs were collected, and the unfertilized ones were discarded. […] At this stage, the membrane that protects the embryo (chorion) was manually removed. This was completed on a 1 % agarose plate and medium for embryos. Two 96-well plates with a curved bottom were prepared. […] One embryo was placed per […], and it was verified that it had not suffered any injury when it was transferred. After preparing the plates, the embryos were evaluated. For this, they were placed in a humid chamber to avoid the evaporation of the compounds and were incubated at 28 °C. At 24 h, the first observation was made and half of the medium in each well was replaced to ensure that the concentrations remained constant during the 96 h of exposure. To do this, 100 µL of medium was removed from each well and replaced with 100 µL of fresh medium. […] In addition, any other type of abnormality that may indicate teratogenicity was recorded. The same was performed every 24 h until 96 h of exposure where the test was considered finished. The embryos were sacrificed in 70% ethanol. […] The curve obtained was fitted to a sigmoid using the OriginLab 8.5 program."}, "[7]": {"system": "CL Brener clone of T. cruzi", "design": "method as in PMID 26492824", "details": "192 µmoles/kg/day; cited from earlier work"}, "[8]": {"system": "Leishmania infantum", "design": "method as in earlier work", "details": "promastigotes; read-out: In vitro anti-Leishmania infantum (visceral) activity (IC50); cited from earlier work"}}, "note": "Values joined by “and” are separate entries in the source; they are usually repeats but may differ in a detail not shown here. Equal entries are not always repeated."}
{"smiles": "O=C(/C=C/C=C/c1ccco1)/C=C/C=C/c1ccco1", "note": "[Compound 793]", "values": [{"measurement": "AV/IP labeling Q1-UR (double AV+/IP+ labeling)", "setting": "[1]; 6 h", "value": 74, "unit": "%"}, {"measurement": "AV/IP labeling Q1-UR (double AV+/IP+ labeling)", "setting": "[1]; 24 h", "value": 84, "unit": "%"}, {"measurement": "In vitro metabolic stability (qualitative)", "setting": "[2]; MF and CF of rat hepatocytes, up to 4 h", "value": "short half-life"}, {"measurement": "Compound metabolized to more hydrophilic compounds", "setting": "[2]; after one hour, both MF and CF", "value": "more than 50%"}, {"measurement": "half-life at 400 µM", "setting": "[2]; pH 7, both MF and CF of rat hepatocytes", "value": "< 1", "unit": "h"}, {"measurement": "IC50", "setting": "[3]", "value": 17, "unit": "µM"}, {"measurement": "CA-AM/IP labeling Q1-UR (CA-AM+/IP+ double-labeled parasites)", "setting": "[4]; 6 h", "value": 82, "unit": "%"}, {"measurement": "CA-AM/IP labeling Q1-UR (CA-AM+/IP+ double-labeled parasites)", "setting": "[4]; 24 h", "value": 98, "unit": "%"}, {"measurement": "IC50", "setting": "[5]", "value": "25 ± 5", "unit": "µM"}, {"measurement": "Teratogenicity in zebrafish (LD50 ± SD)", "setting": "[6]; 96 h exposure", "value": "22 µM and 22 ± 5 µM"}, {"measurement": "Selectivity: zebrafish LD50 versus IC50 in the parasite", "setting": "[6]; zebrafish, in vivo", "value": "four"}, {"measurement": "Days Post-Infection of the First Parasitemia Peak", "setting": "[7]", "value": 22, "unit": "days"}, {"measurement": "Reduction in the Parasitemia Peak (%)", "setting": "[7]", "value": 50, "unit": "%"}, {"measurement": "Survival (%)", "setting": "[7]", "value": 83, "unit": "%"}, {"measurement": "IC50", "setting": "[8]", "value": 31, "unit": "µM"}]}
